In brackets after ≈: the same amount, converted by molar mass.
Experiments:
[1] = cited from earlier work
[2] = Solubility limit of drug in equilibrated dissolution media; format: physicochemical; details: equilibrated dissolution media (0.1 N HCl), simulated gastric fluid; 750 mL 0.1 N HCl, 37° C.
[3] = Physical form and Tg of formulations by XRPD and/or DSC; format: physicochemical; details: as prepared
Experimental: The physical form of the product is identified visually (e.g., solid powder) and by XRPD and/or DSC (to assess amorphous or crystalline state). Tg values are estimates from DSC curves.
X-ray Powder Diffraction (XRPD) is performed with a Panalytical X'Pert^3 Powder XRPD. FIGS. 8-10 show XRPD plots for various formulations made using ITZ and PAA-8. In FIG. 8, plots for ITZ alone (Neat IZT, Formulation F25), a physical mixture of 15% ITZ and 85% PAA (PM 15%, Formulation F26), and a spray-dried solid dispersion of 15% ITZ and 85% PAA (ASD 15%, Formulation F2), are shown. In FIG. 9, plots for ITZ alone (Neat IZT, Formulation F25), a physical mixture of 30% ITZ and 70% PAA (PM 30%, Formulation F27), and a spray-dried solid dispersion of 30% ITZ and 70% PAA (ASD 30%, Formulation F3), are shown. In FIG. 10, plots for ITZ alone (Neat IZT, Formulation F25), a physical mixture of 50% ITZ and 50% PAA (PM 50%, Formulation F28), and a spray-dried solid dispersion of 50% ITZ and 50% PAA (ASD 50%, Formulation F5), are shown.
XRPD is performed with Si zero background holders. The 2-theta position is performed with a Panalytical Si reference standard disc. The XRPD instrument configuration is Bragg-Brentano geometry.
Differential Scanning calorimetry (DSC) is performed with a Mettler-Toldeo DSC-1 instrument (no modulated DSC software) using a sample amount of 5-10 mg. […]

[4] = model APIs; cited from earlier work

solubility [2]	Form [3]	SMILES	Aqueous solubility [1]	solubility in water ([1]; water)	Glass transition temperature, Tg (° C.) [4]
4 to 6 µg/mL (≈ 5.67 to 8.5 µM)		CCC(C)n1ncn(-c2ccc(N3CCN(c4ccc(OCC5COC(Cn6cncn6)(c6ccc(Cl)cc6Cl)O5)cc4)CC3)cc2)c1=O [Itraconazole, 1-(butan-2-yl)-4-{4-[4-(4-{[(2R, 4S)-2-(2,4-dichlorophenyl)-2-(1H-1,2,4-triazol-1-ylmethyl)-1,3-dioxolan-4-yl]methoxylphenyl)piperazin-1-yl]phenyl}-4,5-dihydro-1H-1,2,4-triazol-5-one]	0.001 to 0.004 µg/mL	0.001 to 0.004 µg/mL	
	Crystalline	CC(C)c1nc(CN(C)C(=O)N[C@H](C(=O)N[C@@H](Cc2ccccc2)C[C@H](O)[C@H](Cc2ccccc2)NC(=O)OCc2cncs2)C(C)C)cs1 [Ritonavir, 5-thiazolylmethyl ((alphaS)-alpha-((1S,3S)-1-hydroxy-3-((2S)-2-(3-((2-isopropyl-4-thiazolyl)methyl)-3-methylureido)-3-methylbutyramido)-4-phenylbutyl)phenethyl)carbamate]			45 °C

Source: US20220304936A1, “DRUG-POLYMER AMORPHOUS SOLID DISPERSIONS USING LINEAR POLY(ACRYLIC ACID) POLYMERS” (LUBRIZOL ADVANCED MATERIALS, INC., priority 2019, published 2022)
